In patent publication US20260242390A1, “TOTAL SYNTHESES OF PORTIMINE A AND ANALOGUES THEREOF AS SMALL MOLECULE MODULATORS OF NMD3” (priority 2023, published 2026):
Entries after “also recorded” stand apart in the source; their conditions may differ.

System: primary human PBMCs
Experiment: Toxicity to primary human PBMCs
Assay type: cell-based
Settings: PBMCs 25k per well, 0.23 pM to 1 uM, 12 hr, compared to Jurkat
Procedure: Structurally related negative control ePA and PB are non-toxic in all cell types in the current concentrate range. PBMCs (25k per well), Jurkat (10k per well). Compound concentration was increased from […] to 1 uM, 4× per gradient, PBMCs using primary B cell media from Wesley (heat deactivated), and Jurkat using normal RPMI media and incubated for 12 hr.
FIG. 3. Initial SAR studies: Assessing activity of PAL functionalized PTMA analogs. […] (A) PA and Ph-PA show less toxic to healthy PBMCs compared to Jurkat cells. […] (B) Immunoblot of caspase-3 in Jurkat and PBMCs with indicated conditions.
• 1) Portimine A and its functional analogs show stereo-selective acute toxicity in cancer cells (FIG. 1). […] (B) Structure of portimine related analogs: phenyl-portimine A (Ph-PA, 36) and epi-portimine A (ePA, 38). Structure of fully functionalized portimine A-based epimeric probe pair: portimine A-diazirine-alkyne (PA-DA, 35-2) and epi-portimine A-diazirine-alkyne (ePA-DA, 35-1). (C) Cell viability analysis of portimine A and analogs. Jurkat cells were treated with increasing concentrations of portimine A and analogs for 24 hours. All presented data as mean of biological replicated experiments (n=3). […] Jurkat cells were treated with portimine A or analogs for 12 hours at 10 nM. […] Structurally related negative control ePA and PB are non-toxic in all cell types in the current concentrate range. PBMCs (25k per well), Jurkat (10k per well). […] Cell cycle analysis in Jurkat cells (FIG. 2). Jurkat cells were treated with 10 nM of indicated compounds for 24 hours, and propodium iodide was used to identify different stages of cells by flow cytometry. […] (A) PA and Ph-PA show less toxic to healthy PBMCs compared to Jurkat cells. […] (B) Immunoblot of caspase-3 in Jurkat and PBMCs with indicated conditions. […] (A) Pharmacokinetic studies of mouse intraperitoneal (i.p.) and oral (p.o.) administration for portimine (n=3). […] Impact of PA [0.3 or 1 mg/kg intraperitoneally] on MC38 tumor growth in WT mice (n=6). (C) Kaplan-Myer survival curve of WT MC38 tumor-bearing mice (n=6) after treatment with PA as described in (D). Mice were euthanized when tumor area exceeded 2000 mm^3. Statistical analysis was performed using ANOVA analysis followed by multiple comparisons test, * p≤0.05. Treatment condition: Jurkat (60 M per condition); PA-DA/ePA-DA concentration: 0.5 uM, PA or ePA: 5 uM; Incubate with probe with or without competitors (PA, ePA) for 30 min; UV irradiated for 20 min. (0.5 uM PA-DA add a no-UV condition), Standard pulldown & biotin-enrichment and western blot analysis (Elute condition: 2× sample buffer+500 uM biotin, boil for 20 mins); Primary antibody NMD3 (ProteinTech, 1:150), Actin (BioRad, 1:10000). […] Chemical proteomic profiling with PA-DA in Jurkat cells (A, B, C, G) and HCC1806 cells (D, E, F, H) show NMD3 is the primary target candidate of portimine A. Volcano plot in panels A and D show protein competition in cells treated with active photoaffinity probe PA-DA (500 nM) and DMSO or the active competitor portimine A (PA, […]), dotted lines indicate threshold of fold change <4, p-value>0.05. […] (I, J) Confirmation of PA-DA engagement of NMD3 in Jurkat and HCC1806 cells. […] Treatment condition: Jurkat (5M per well). Portimine A concentration: 2 nM-1000 nM; In total treat cell for 12 hours. […] Protein degradation of p53, Mcl1, Bid, Bim, Noxa can be rescued by MG132 or Epoxomicin. (B) NMD3 mRNA increased after PA treatment, but not ePA control compound. […]

Compound | toxicity to healthy / primary human PBMCs | toxicity to healthy / primary human PBMCs (listed as Portimine A)
C=CC1=C[C@@H]2[C@@H]3O[C@]4(CC[C@H](O4)C(C)C[C@@H](O)C3=O)CC(O)C3=NCC[C@@]32CC1 (some centres unmarked) [PA, portimine A] | substantially less toxic | non-toxic; also recorded: do not induce apoptosis or affect cell viability
CC1C[C@@H](O)C(=O)[C@H]2O[C@]3(CC[C@@H]1O3)CC(O)C1=NCC[C@@]13CCC(c1ccccc1)=C[C@H]23 (some centres unmarked) [Ph-PA, phenyl-portimine A] | substantially less toxic | 
C=CC1=C[C@@H]2[C@@H]3OC4(CC[C@H](O4)C(C)C[C@@H](O)C3=O)CC(=O)C3=NCC[C@@]32CC1 (some centres unmarked) [PB, portimine B] | non-toxic; also recorded: non-toxicity | 
C=CC1=C[C@@H]2[C@@H]3O[C@]4(CC[C@H](O4)C(C)C[C@@H](O)C3=O)C[C@@H](O)C3=NCC[C@@]32CC1 (stereo partly drawn) [ePA, epi-portimine A] | non-toxic; also recorded: non-toxicity | 
